We go through 1 compound from patent US20250387352A1 (SpringWorks Therapeutics, Inc., priority 2024, published 2025).

In series [1] the test system is NF1-associated plexiform neurofibromas (PNs). Briefly: Phase 2b trial of mirdametinib in adult and pediatric patients with NF1-associated inoperable plexiform neurofibromas: efficacy by BICR volumetric MRI (REiNS). Format: in vivo, human. Here is the method: Study treatment was administered orally at a twice daily (BID) dose specified in the table below. Dosing was on a 28-day Cycle (4-week course) with a 3 week on/1 week off schedule. The treatment period will last for up to 24 Cycles followed by a 30-day Safety Follow-Up period.
A partial response was defined as PN decrease ≥20% compared to baseline using centrally read MRI volumetric analysis.
The major efficacy outcome measure was confirmed objective response rate (ORR), defined as the percentage of patients with complete response (disappearance of the target PN) or confirmed partial response (≥20% reduction in PN volume confirmed at a subsequent tumor assessment within 2-6 months during the 24-cycle treatment phase). Responses were assessed by blinded independent central review (BICR) using volumetric magnetic resonance imaging (MRI) analysis per Response Evaluation in Neurofibromatosis and Schwannomatosis (REINS) criteria. A secondary efficacy objective was to determine the duration of response for patients who achieved a confirmed objective response.

A short description of series [2]: Metabolism and excretion of mirdametinib (radioactivity recovery). The series is classed as in vivo.
Series [3] is described as follows: Clinical pharmacokinetic parameters of mirdametinib (Table A). The note with it: human, in vivo.

For the compound `O=C(NOC[C@H](O)CO)c1ccc(F)c(F)c1Nc1ccc(I)cc1F` (single isomer, unassigned) [mirdametinib], the “median time to onset of response” value is given as 7.8 months in series [1] (adult cohort) and 7.9 months in series [1] (pediatric cohort). In addition, the “ORR also considering confirmed objective response after cycle 24” value in series [1] (adults) amounted to 45%; in series [1] (pediatric patients) it was 54%. Also, the “Excretion: Radioactivity” value in series [2] (In feces) was “In feces: 27%”; in series [2] (In urine) it was “In urine: 68%”. Also, the “Excretion: Unchanged mirdametinib” value is “In urine: 0.7%” in series [2] (In urine); “In urine and feces: 9%” in series [2] (In urine and feces). The Time to steady-state entry in series [3] is given as “Approximately 6 days”.
